Assay results from patent publication US7087631B2, “Aryltetrazole compounds, and compositions thereof” (Inotek Pharmaceuticals Corporation, priority 2002, dated 2006).

How the values were obtained:
[1] = molecular target: xanthine oxidase (Homo sapiens, UniProt P47989); experiment: Xanthine oxidase inhibitory activity, 96 well plate, kinetic reading at 295 nm; assay type: biochemical
[2] = test system: thioacetamide model of hepatic failure; experiment: Toxic liver injury model (thioacetamide model of hepatic failure), serum AST; assay type: in vivo; details: mice; for serum AST levels (result in words): summary of the table; for Percent Inhibition of Serum AST Levels: thioacetamide 400 mg/kg i.p., mean ±SEM (n=7-10)
Method: Illustrative 5-Aryltetrazole Compounds exert hepatoprotective effects in a thioacetamide model of hepatic failure. […] […] Results are expressed as percent inhibtion, mean ±SEM (n=7-10). Studies were conducted as described in Biochim. Biophys. Acta. 1536(1):21-30 (2001).

[3] = test system: gut ischemia reperfusion; experiment: Gut ischemia reperfusion-induced hyperpermeability and mortality; assay type: in vivo; details: mice; for Gut Permeability: intraperitoneal, control 100%
Method: Illustrative 5-Aryltetrazole Compounds exert protective effects in various models of organ ischemia and reperfusion. For example, intraperitoneal administration of illustrative 5-Aryltetrazole Compounds retards the progression of gut ischemia reperfusion-induced hyperpermeability and mortality in mice. Results are expressed as % decrease in gut hyperpermeability and as mortality as observed after 6 hours and 2 days of reperfusion. Studies were conducted as described in Shock, 14(2): 134-141 (2000). There was a notable dose-dependent effect on gut hyperpermeability and there was an improvement in survival rate, as tested at the highest dose of both levels.

[4] = compound concentration 0.1 μM, 0.1 µM

Sequence of xanthine oxidase (P47989 whole entry, species assumed): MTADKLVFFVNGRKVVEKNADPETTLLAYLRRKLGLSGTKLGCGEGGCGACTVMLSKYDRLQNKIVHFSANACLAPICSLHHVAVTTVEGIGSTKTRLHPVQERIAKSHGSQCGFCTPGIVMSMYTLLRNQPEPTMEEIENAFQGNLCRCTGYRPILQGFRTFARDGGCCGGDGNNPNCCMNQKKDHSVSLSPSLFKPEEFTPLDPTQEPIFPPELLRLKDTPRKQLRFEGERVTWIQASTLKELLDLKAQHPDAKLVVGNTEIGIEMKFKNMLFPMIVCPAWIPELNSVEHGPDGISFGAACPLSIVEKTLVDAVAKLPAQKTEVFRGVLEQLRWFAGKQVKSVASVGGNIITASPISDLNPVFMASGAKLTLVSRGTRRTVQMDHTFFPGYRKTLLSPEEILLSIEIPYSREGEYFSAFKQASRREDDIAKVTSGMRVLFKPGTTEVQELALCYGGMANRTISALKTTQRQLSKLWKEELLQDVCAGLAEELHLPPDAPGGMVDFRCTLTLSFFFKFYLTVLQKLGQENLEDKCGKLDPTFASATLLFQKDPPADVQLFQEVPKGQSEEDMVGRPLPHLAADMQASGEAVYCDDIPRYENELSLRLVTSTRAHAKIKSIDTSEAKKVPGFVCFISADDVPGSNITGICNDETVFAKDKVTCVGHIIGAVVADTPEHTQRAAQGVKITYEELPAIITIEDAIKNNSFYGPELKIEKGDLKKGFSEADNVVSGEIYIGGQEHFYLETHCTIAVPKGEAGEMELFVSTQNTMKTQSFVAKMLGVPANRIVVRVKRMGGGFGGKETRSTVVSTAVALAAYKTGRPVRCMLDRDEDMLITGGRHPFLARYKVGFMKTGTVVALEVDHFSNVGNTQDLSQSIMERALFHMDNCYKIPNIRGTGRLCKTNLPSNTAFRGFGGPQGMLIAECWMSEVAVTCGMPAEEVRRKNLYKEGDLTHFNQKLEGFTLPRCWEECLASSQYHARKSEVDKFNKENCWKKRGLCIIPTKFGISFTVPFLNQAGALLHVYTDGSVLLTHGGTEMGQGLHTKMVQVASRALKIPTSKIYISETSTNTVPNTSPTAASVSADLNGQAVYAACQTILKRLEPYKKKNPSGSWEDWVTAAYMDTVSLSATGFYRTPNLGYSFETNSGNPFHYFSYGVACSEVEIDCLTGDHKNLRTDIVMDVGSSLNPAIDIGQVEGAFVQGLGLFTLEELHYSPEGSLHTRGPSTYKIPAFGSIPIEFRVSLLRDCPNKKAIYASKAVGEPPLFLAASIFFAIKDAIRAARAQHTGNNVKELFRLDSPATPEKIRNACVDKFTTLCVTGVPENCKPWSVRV

| PERCENT XANTHINE OXIDASE INHIBITION ([1]; compound concentration 0.03 μM) [%] | PERCENT XANTHINE OXIDASE INHIBITION ([1]; compound concentration 0.1 μM) [%] | PERCENT XANTHINE OXIDASE INHIBITION ([1]; compound concentration 1 μM) [%] | PERCENT XANTHINE OXIDASE INHIBITION ([1]; compound concentration 100 μM) [%] | Compound | further results |
| --- | --- | --- | --- | --- | --- |
| 46 | 74 | 98 |  | O=C(Nc1ccc(Cl)cc1)c1ccc(-c2nnn[nH]2)cc1 [IX] | serum AST levels (result in words) [2]: inhibit serum AST levels; Percent Inhibition of Serum AST Levels ([2]; single oral dose 10 mg/kg): 31 ± 1% |
| 44 | 68 | 97 |  | O=C(O)c1ccc(NC(=O)c2ccc(-c3nnn[nH]3)cc2)cc1 [Compound IS] | serum AST levels (result in words) [2]: inhibit serum AST levels; Percent Inhibition of Serum AST Levels ([2]; single oral dose 10 mg/kg): 33 ± 5% |
| 16 | 38 | 89 |  | CCc1ccc(NC(=O)c2ccc(-c3nnn[nH]3)cc2)cc1 [JM] | Percent Inhibition of Serum AST Levels ([2]; single oral dose 3 mg/kg): 12 ± 7%; Percent Inhibition of Serum AST Levels ([2]; single oral dose 10 mg/kg): 31 ± 7% |
| 20 | 41 | 88 |  | Cc1ccc(NC(=O)c2ccc(-c3nnn[nH]3)cc2)cc1 [Compound JN] | Percent Inhibition of Serum AST Levels ([2]; single oral dose 3 mg/kg): 11 ± 7%; Percent Inhibition of Serum AST Levels ([2]; single oral dose 10 mg/kg): 31 ± 7% |
|  |  |  | 33 | Fc1ccc(-c2nnn[nH]2)cc1Cl [Compound HE] |  |
|  |  | 9 |  | O=C(Oc1cc[n+]([O-])cc1)c1ccc(-c2nnn[nH]2)cc1 [GN] |  |
|  |  |  | 30 | Nc1ccc(-c2nnn[nH]2)cc1 [FO] | PERCENT XANTHINE OXIDASE INHIBITION ([1]; compound concentration 10 μM): 3% |
|  |  | 0 |  | Cc1cc(C(=O)Nc2ccccc2)ccc1-c1nnn[nH]1 [JK] |  |
| 37 | 59 | 92 |  | O=C(Nc1ccc(F)cc1)c1ccc(-c2nnn[nH]2)cc1 [Compound HX] |  |
|  |  | 73 | 95 | CCCCOC(=O)c1ccc(-c2nnn[nH]2)cc1 [FX] | PERCENT XANTHINE OXIDASE INHIBITION ([1]; compound concentration 10 μM): 95% |
|  |  | 28 | 97 | CCCCCCOC(=O)c1ccc(-c2nnn[nH]2)cc1 [GF] | PERCENT XANTHINE OXIDASE INHIBITION ([1]; compound concentration 10 μM): 79% |
| 7 | 15 | 56 |  | O=C(Nc1ccc(-c2nnn[nH]2)cc1)c1ccccc1 [Compound IT] |  |
|  |  | 0 |  | O=S(=O)(NC12CC3CC(CC(C3)C1)C2)c1ccc(-c2nnn[nH]2)cc1 [HU] |  |
|  |  |  | 71 | COc1ccc(-c2nnn[nH]2)cc1 [FK] | PERCENT XANTHINE OXIDASE INHIBITION ([1]; compound concentration 10 μM): 30% |
|  |  | 0 |  | O=S(=O)(NC1CCCCC1)c1ccc(-c2nnn[nH]2)cc1 [HV] |  |
| 46 | 74 | 98 |  | CC(C)COc1ccc(-c2nnn[nH]2)cc1 [JP] |  |
|  | 6 | 34 |  | N#Cc1cc(-c2nnn[nH]2)ccc1C(=O)Nc1ccccc1 [JF] |  |
| 33 | 61 | 93 |  | N#Cc1cc(-c2nnn[nH]2)ccc1C(=O)Nc1ccncc1 [JG] |  |
| 20 | 41 | 88 |  | O=C(Nc1cccc(I)c1)c1ccc(-c2nnn[nH]2)cc1 [HZ] |  |
|  |  |  | 43 | CC(C)(C)OC(=O)N1CCN(C(=O)c2ccc(-c3nnn[nH]3)cc2)CC1 [HK] |  |
|  |  | 0 |  | O=C(Nc1ccccc1)c1ccc(-c2nnn[nH]2)cc1Cl [JJ] |  |

| PERCENT XANTHINE OXIDASE INHIBITION ([1]; compound concentration 0.03 μM) [%] | PERCENT XANTHINE OXIDASE INHIBITION ([1]; compound concentration 0.1 μM) [%] | PERCENT XANTHINE OXIDASE INHIBITION ([1]; compound concentration 1 μM) [%] | PERCENT XANTHINE OXIDASE INHIBITION ([1]; compound concentration 100 μM) [%] | Compound | further results |
| --- | --- | --- | --- | --- | --- |
|  | 12 | 46 |  | O=C(OCCN1CCOCC1)c1ccc(-c2nnn[nH]2)cc1 [GK] | PERCENT XANTHINE OXIDASE INHIBITION ([1]; compound concentration 0.01 μM): 3% |
|  | 28 | 76 |  | C#CCCCOC(=O)c1ccc(-c2nnn[nH]2)cc1 [GM] | PERCENT XANTHINE OXIDASE INHIBITION ([1]; compound concentration 0.01 μM): 8% |
|  |  | 88 | 100 | CC(C)OC(=O)c1ccc(-c2nnn[nH]2)cc1 [FZ] | PERCENT XANTHINE OXIDASE INHIBITION ([1]; compound concentration 10 μM): 97% |
| 65 |  |  |  | O=C(OC1CCCCC1)c1ccc(-c2nnn[nH]2)cc1 [GH] | PERCENT XANTHINE OXIDASE INHIBITION [1, 4]: 91%; PERCENT XANTHINE OXIDASE INHIBITION ([1]; compound concentration 1 μM, 1 µM): 100% |
| 28 | 52 | 92 |  | CC(C)c1ccc(NC(=O)c2ccc(-c3nnn[nH]3)cc2)cc1 [Compound IP] | serum AST levels (result in words) [2]: inhibit serum AST levels; Percent Inhibition of Serum AST Levels ([2]; single oral dose 3 mg/kg): 23 ± 8%; Percent Inhibition of Serum AST Levels ([2]; single oral dose 10 mg/kg): 41 ± 8% |
|  |  | 64 | 100 | CCOC(=O)c1ccc(-c2nnn[nH]2)cc1 [FV] | PERCENT XANTHINE OXIDASE INHIBITION ([1]; compound concentration 10 μM): 92% |
|  | 91 | 100 |  | O=C(OCc1ccco1)c1ccc(-c2nnn[nH]2)cc1 [HP] | PERCENT XANTHINE OXIDASE INHIBITION ([1]; compound concentration 0.05 μM): 41% |
|  | 8 | 48 |  | C=C(C)C1CC=C(COC(=O)c2ccc(-c3nnn[nH]3)cc2)CC1 (centres unmarked) [GR] | PERCENT XANTHINE OXIDASE INHIBITION ([1]; compound concentration 0.01 μM): 0% |
|  |  |  | 80 | O=[N+]([O-])c1cc(-c2nnn[nH]2)ccc1Cl [HF] |  |
|  | 68 | 95 |  | O=C(OCC(C(F)(F)F)C(F)(F)F)c1ccc(-c2nnn[nH]2)cc1 [GS] | PERCENT XANTHINE OXIDASE INHIBITION ([1]; compound concentration 0.01 μM): 13% |
|  |  |  | 22 | COc1cc(-c2nnn[nH]2)cc(OC)c1OC [HG] |  |
| 12 | 32 | 82 |  | CC(C)COc1ccc(-c2nnn[nH]2)cc1C#N [Compound JE] |  |
|  |  |  | 2 | c1cncc(-c2cccc(-c3nnn[nH]3)c2)c1 [HJ] |  |
|  |  | 11 | 91 | O=C(O)c1ccc(-c2nnn[nH]2)cc1 [FY] | PERCENT XANTHINE OXIDASE INHIBITION ([1]; compound concentration 10 μM): 56% |
|  |  | 8 |  | O=C(OC(C1CCCCC1)C1CCCCC1)c1ccc(-c2nnn[nH]2)cc1 [GZ] |  |
|  |  | 100 |  | O=C(OCc1ccccc1I)c1ccc(-c2nnn[nH]2)cc1 [JQ] | PERCENT XANTHINE OXIDASE INHIBITION ([1]; compound concentration 0.01 μM, 0.01 µM): 18%; PERCENT XANTHINE OXIDASE INHIBITION [1, 4]: 89% |
|  | 21 | 68 |  | c1cc(-c2nnn[nH]2)ccc1OCC1CCCCC1 [IN] | xanthine oxidase activity (result in words) ([1]; summary of the table): inhibit xanthine oxidase activity |
|  |  | 9 | 92 | CC(=O)c1ccc(-c2nnn[nH]2)cc1 [FU] | PERCENT XANTHINE OXIDASE INHIBITION ([1]; compound concentration 10 μM): 54% |
|  |  |  | 0 | O=C(c1ccc(-c2nnn[nH]2)cc1)N1CCNCC1 [HL] |  |
|  |  |  | 32 | Cc1ccc(-c2nnn[nH]2)cc1 [FN] | PERCENT XANTHINE OXIDASE INHIBITION ([1]; compound concentration 10 μM): 3% |

| Compound | PERCENT XANTHINE OXIDASE INHIBITION ([1]; compound concentration 0.03 μM) [%] | PERCENT XANTHINE OXIDASE INHIBITION ([1]; compound concentration 0.1 μM) [%] | PERCENT XANTHINE OXIDASE INHIBITION ([1]; compound concentration 1 μM) [%] | PERCENT XANTHINE OXIDASE INHIBITION ([1]; compound concentration 100 μM) [%] | further results |
| --- | --- | --- | --- | --- | --- |
| CC(C)Cc1ccc(NC(=O)c2ccc(-c3nnn[nH]3)cc2)cc1 [Compound IG] | 33 | 59 | 93 |  | serum AST levels (result in words) [2]: inhibit serum AST levels; Percent Inhibition of Serum AST Levels ([2]; single oral dose 3 mg/kg): 25 ± 4%; Percent Inhibition of Serum AST Levels ([2]; single oral dose 10 mg/kg): 46 ± 8%; Survival % (6 h) ([3]; 30 mg/kg, 6 hours of reperfusion, control 60): 87%; Survival % (2 days) ([3]; 30 mg/kg, 2 days of reperfusion, control 0): 20%; Gut Permeability ([3]; 3 mg/kg): 73%; Gut Permeability ([3]; 10 mg/kg): 69%; Gut Permeability ([3]; 30 mg/kg): 47% |
| O=C(Nc1ccccc1)c1ccc(-c2nn[nH]n2)cc1 [Compound IC] | 60 | 81 | 100 |  | serum AST levels (result in words) [2]: inhibit serum AST levels; Percent Inhibition of Serum AST Levels ([2]; single oral dose 3 mg/kg): 3 ± 8%; Percent Inhibition of Serum AST Levels ([2]; single oral dose 10 mg/kg): 20 ± 5% |
| O=C(NC12CC3CC(CC(C3)C1)C2)c1ccc(-c2nnn[nH]2)cc1 [HT] | 15 | 23 | 62 |  |  |
| CC(C)c1ccccc1NC(=O)c1ccc(-c2nnn[nH]2)cc1 [IF] |  |  | 16 |  |  |
| O=C(Nc1ccc(F)cc1F)c1ccc(-c2nnn[nH]2)cc1 [IZ] | 23 | 52 | 89 |  |  |
| O=C(NCc1ccccc1)c1ccc(-c2nnn[nH]2)cc1 [JA] |  | 0 |  |  |  |
